According to the NIST ThermoML archive (doi:10.1021/je900048r):

Experiments:
[1] = Liquid, Other PVT measurement
[2] = xn = mol fraction of the nth substance listed; conditions: Liquid, Other PVT measurement, x2 = 0

CCO [ethanol]
mass density [kg/m3], [1]
Conditions	200 kPa	600 kPa	1000 kPa	1400 kPa	1800 kPa	2000 kPa
313.15 K	770	770	770	771	771	772
353.15 K	734	734	735	735	736	738
393.15 K	–	691	692	693	694	694
433.15 K	–	–	–	638	639	639

CCO [ethanol] + CCCCn1cc[n+](C)c1.F[B-](F)(F)F
mass density [kg/m3], [2]
Conditions	200 kPa	600 kPa	1000 kPa	1400 kPa	1800 kPa	2000 kPa
313.15 K	770	770	770	771	771	772
353.15 K	734	734	735	735	736	738
393.15 K	–	691	692	693	694	694
433.15 K	–	–	–	638	639	639

O [water]
[1]
Conditions	mass density [kg/m3]
313.15 K, 200 kPa	993
313.15 K, 2000 kPa	995
353.15 K, 200 kPa	975
353.15 K, 400 kPa	975
373.15 K, 800 kPa	963
373.15 K, 1200 kPa	963
393.15 K, 200 kPa	949
393.15 K, 400 kPa	949
393.15 K, 1600 kPa	950
393.15 K, 2000 kPa	950
433.15 K, 800 kPa	912
433.15 K, 1200 kPa	912
473.15 K, 1600 kPa	871
473.15 K, 2000 kPa	871
